Assay results reported in patent US20210009557A1, “ACYCLIC CXCR4 INHIBITORS AND USES THEREOF” (X4 Pharmaceuticals, Inc., priority 2017, published 2021).

Key:
[1] = molecular target: T1, CXCR-4 transfected U87 cell line (U87.CXCR4) (Homo sapiens, UniProt P61073); assay: Intracellular CXCL-12-induced calcium mobilization assay (FLIPR); format: cell-based; conditions: U87.CXCR4 cells; CXCL-12 25-50 ng/mL; compounds added 15 minutes before; read-out: IC50 CXCL-12 Ca2+ flux U87.CXCR4+
T1 construct: expressed in transfected cells; host or cells: U87 cell line (U87.CXCR4)
T1 sequence (P61073 whole entry): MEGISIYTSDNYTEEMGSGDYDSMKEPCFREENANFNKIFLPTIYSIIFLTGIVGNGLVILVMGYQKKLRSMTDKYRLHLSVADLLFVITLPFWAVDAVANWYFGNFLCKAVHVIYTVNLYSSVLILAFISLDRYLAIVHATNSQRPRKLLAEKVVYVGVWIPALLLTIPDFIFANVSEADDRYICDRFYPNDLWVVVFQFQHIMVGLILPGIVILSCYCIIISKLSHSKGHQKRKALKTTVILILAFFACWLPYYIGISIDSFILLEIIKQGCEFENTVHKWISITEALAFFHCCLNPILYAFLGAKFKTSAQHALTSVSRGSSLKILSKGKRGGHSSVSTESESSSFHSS
Procedure: Intracellular calcium mobilization induced by chemokines orchemokine-derived peptides were evaluated using a calcium responsive fluorescent probe and a FLIPR system. The CXCR-4 transfected U87 cell line (U87.CXCR4) cells were seeded in gelatine-coated black-wall 96-well plates at 20,000 cells per well and incubated for 12 hours. Cells were then loaded with the fluorescent calcium probe Fluo-2 acetoxymethyl at 4 μM final concentration in assay buffer (Hanks' balanced salt solution with 20 mM HEPES buffer and 0.2% bovine serum albumin, pH 7.4) for 45 min at 37′C. The intracellular calcium mobilization induced by the CXCL-12 (25-50 ng/mL) was then measured at 37° C. by monitoring the fluorescence as a function of time in all the wells simultaneously using a fluorometric imaging plate reader (FLIPR Tetra, Molecular Devices).

[2] = molecular target: T2, Jurkat cells expressing CXCR4 (Homo sapiens, UniProt P61073); assay: Chemokine (CXCL12-AF647) binding inhibition assay; conditions: CXCL12-AF647 25 ng/mL, read-out: IC50 CXCL-12 binding Jurkat
T2 construct: Jurkat cells expressing CXCR4; endogenous in cells; host or cells: Jurkat cells
T2 sequence (P61073 whole entry): as above
Procedure: Jurkat cells expressing CXCR4 were washed once with assay buffer (Hanks' balanced salt solution with 20 mM HEPES buffer and 0.2% bovine serum albumin, pH 7.4) and then incubated for 15 min at room temperature with the test compounds diluted in assay buffer at dose-dependent concentrations. Subsequently, CXCL12-AF647 (25 ng/mL) was added to the compound-incubated cells. The cells were incubated for 30 min at room temperature. Thereafter, the cells were washed twice in assay buffer, fixed in 1% paraformaldehyde in PBS, and analyzed on the FL4 channel of a FACSCalibur flow cytometer equipped with a 635-nm red diode laser (Becton Dickinson, San Jose, Calif., USA).
The percentages of inhibition of CXCL12-AF647 binding were calculated according to the formula: [1−((MFI−MFINC)/(MFIPC−MFINC))]×100 where MFI is the mean fluorescence intensity of the cells incubated with CXCL12-AF647 in the presence of the inhibitor, MFINC is the mean fluorescence intensity measured in the negative control (i.e., autofluorescence of unlabeled cells), and MFIPC is the mean fluorescence intensity of the positive control (i.e., cells exposed to CXCL12-AF647 alone).

[3] = in vitro; conditions: human, Caco-2, pH 7.4
Procedure: (§1) The goal of this assay was to evaluate the intestinal absorption potential of drug candidates using Caco-2 cell lines.
(§2) Experimental Procedure • 1. Pre-warm Pre-warm HBSS Buffer in 37° C. water bath • 2. Sonicate Take compounds from −20° C., sonicate for a few minutes (no less than 1 minute) • 3. Solution preparation
(§3) For A-to-B Direction: • HBSS buffer with 0.3% DMSO and 5 μM LY: add 150 μL DMSO and 50 μL LY (5 mM) into 50 ml HBSS buffer (pH 7.4). • HBSS buffer with 0.1% DMSO and 5 μM LY: add 50 μL DMSO and 50 μL LY (5 mM) into 50 mL HBSS buffer (pH 7.4).
(§4) For B-to-A Direction: • HBSS buffer with 0.3% DMSO: add 150 μL DMSO into 50 ml HBSS buffer (pH 7.4). HBSS buffer with 0.1% DMSO: add 50 μL DMSO into 50 ml HBSS buffer (pH 7.4).
(§5) For A-to-B Direction: • Prepare HBSS buffer with 0.4% DMSO: add 200 μL DMSO into 50 ml HBSS buffer (pH 7.4).
(§6) For B-to-A Direction: • Prepare HBSS buffer with 0.4% DMSO and 5 μM LY: add 200 μL DMSO and 50 μL LY (5 mM) into 50 ml HBSS buffer (pH 7.4).
(§7) • 4. Measure TEER Take cell culture plate out of incubator, wash the cell monolayers with HBSS buffer, and then measure TEER values at Rm temperature. • 5. Centrifuge Centrifuge the compound solution (from step 3) at 4000 rpm for 5 min before loading to donor chambers. • 6. Dosing Add solution based on the volumes listed in the following table (make sure to take extra 100 μL of donor sample for T0 as Backup).
(§8) • 7. Apical LYTO samples To determine LY concentration in the apical chamber, take 100 μL sample from apical chambers into an opaque plate for LYTO. • 8. Pre-warm Pre-warm apical and basolateral plates at 37° C. for about 5 min, then begin transport by placing the apical plate onto basolateral plate. • 9. Incubation Keep the plates in incubator at 37° C. for 90 min. • 10.
(§9) • Prepare 1× solution: • 3 μL (20×)+57 μL of 0.4% DMSO HBSS+60 μL ACN with IS (Osalmid or Imipramine)—120 μL (1×) • 11. Transport termination Separate the apical plate from the basolateral plate after 90-min incubation. • 12. Measure LY Take 100 μL samples from basolateral plate to an opaque plate as LYT90. • 13. Measure LY concentrations for LYTO and LYT90 by Fluorometer (at excitation of 485 nm/emission of 535 nm). • 14.
(§10) Drug permeability: Papp=(VA/(Area×time))×([drug]accepter/(([drug]initial, donor)×Dilution Factor) • Where VA is the volume in the acceptor well, area is the surface area of the membrane and time is the total transport time in seconds.
(§11) For Millicell-24 Cell Culture Plates: surface area of the membrane=0.7 cm^2, VA=0.8 mL (A-to-B) or 0.4 mL (B-to-A)

[4] = system: Caco-2 cells; assay: in vitro; conditions: Caco-2
Procedure: as §1, §2, §3, §4, §5, §6, §7, §8, §9, §10, §11

IC50 [1] [nM] | IC50 [2] [nM] | Papp A→B at 90 min, 10 μM [3] [×10⁻⁶ cm/s] | Papp B→A at 90 min, 10 μM [3] [×10⁻⁶ cm/s] | efflux ratio at 90 min, 10 μM [3] | permeability for Lucifer Yellow [4] | Compound
≥ 1000 | ≥ 1000 | > 10 | > 10 | 0.1 to 10 | – | NC(=O)CCN(Cc1nccs1)[C@H]1CCCc2cccnc21 [Compound I-50]
≥ 1000 | 0.01 to 100 | 5 to 10 | > 10 | 0.1 to 10 | – | NC(=O)CCN(Cc1ncccc1-c1ccccc1)[C@H]1CCCc2cccnc21 [Compound I-51]
≥ 1000 | 100 to 1000 | 5 to 10 | > 10 | 0.1 to 10 | – | Cc1cccnc1CN(CCc1c[nH]cn1)Cc1nccs1 [Compound I-52]
≥ 1000 | 100 to 1000 | > 10 | > 10 | 0.1 to 10 | – | Clc1cccnc1CN(CCc1cnc[nH]1)Cc1nccs1 [Compound I-53]
≥ 1000 | 100 to 1000 | 5 to 10 | > 10 | 0.1 to 10 | – | c1ccc2c(CN(CCc3c[nH]cn3)Cc3nccs3)nccc2c1 [Compound I-54]
≥ 1000 | 100 to 1000 | > 10 | > 10 | 0.1 to 10 | – | OCCN(Cc1nc2ccccc2[nH]1)[C@H]1CCCc2cccnc21 [Compound I-55]
≥ 1000 | 0.01 to 100 | 5 to 10 | > 10 | 0.1 to 10 | – | COc1cccnc1CCN(Cc1ncccc1C)Cc1ncccc1C [Compound I-56]
100 to 1000 | 0.01 to 100 | < 5 | > 10 | 0.1 to 10 | – | Cc1cccnc1CN(CCc1cnc[nH]1)Cc1ncccc1-c1ccccc1 [Compound I-57]
≥ 1000 | 100 to 1000 | > 10 | > 10 | 0.1 to 10 | – | Cc1cccnc1CN(CCn1ccccc1=O)Cc1ncccc1C [Compound I-58]
≥ 1000 | 100 to 1000 | > 10 | > 10 | 0.1 to 10 | – | Cc1cccnc1CN(CCc1cccc(O)n1)Cc1ncccc1C [Compound I-59]
– | – | – | – | – | low permeability | Lucifer Yellow [reference compound]
